Assay results: PubChem BioAssay (NCI)
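Cells were grown in 96-well plates and exposed to each compound for 48 hours at five concentrations; endpoints were interpolated linearly between bracketing concentrations, or set to the highest concentration if not reached. GI50 is the concentration that inhibits growth by half. TGI: concentration producing complete growth inhibition.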

Legend:
Test in all cases: NCI-60 cell line screen, 48 h
786-0 renal = tested on: 786-0 renal
A498 renal = tested on: A498 renal
A549 NSCLC = tested on: A549 NSCLC
ACHN renal = tested on: ACHN renal
BT-549 breast = tested on: BT-549 breast
CCRF-CEM leukemia = tested on: CCRF-CEM leukemia
COLO 205 colon = tested on: COLO 205 colon
DU-145 prostate = tested on: DU-145 prostate
EKVX NSCLC = tested on: EKVX NSCLC
HCC-2998 colon = tested on: HCC-2998 colon
HCT-116 colon = tested on: HCT-116 colon
HCT-15 colon = tested on: HCT-15 colon
HL-60(TB) leukemia = tested on: HL-60(TB) leukemia
HOP-62 NSCLC = tested on: HOP-62 NSCLC
HOP-92 NSCLC = tested on: HOP-92 NSCLC
HS 578T breast = tested on: HS 578T breast
HT29 colon = tested on: HT29 colon
IGROV1 ovarian = tested on: IGROV1 ovarian
KM12 colon = tested on: KM12 colon
LOX IMVI melanoma = tested on: LOX IMVI melanoma
M14 melanoma = tested on: M14 melanoma
MALME-3M melanoma = tested on: MALME-3M melanoma
MCF7 breast = tested on: MCF7 breast
MDA-MB-231 breast = tested on: MDA-MB-231 breast
MDA-MB-435 = tested on: MDA-MB-435
MOLT-4 leukemia = tested on: MOLT-4 leukemia
NCI-H226 lung = tested on: NCI-H226 lung
NCI-H23 lung = tested on: NCI-H23 lung
NCI-H460 lung = tested on: NCI-H460 lung
NCI-H522 lung = tested on: NCI-H522 lung
NCI/ADR-RES ovarian = tested on: NCI/ADR-RES ovarian
OVCAR-3 ovarian = tested on: OVCAR-3 ovarian
OVCAR-4 ovarian = tested on: OVCAR-4 ovarian
OVCAR-5 ovarian = tested on: OVCAR-5 ovarian
OVCAR-8 ovarian = tested on: OVCAR-8 ovarian
PC-3 prostate = tested on: PC-3 prostate
RPMI-8226 leukemia = tested on: RPMI-8226 leukemia
RXF 393 renal = tested on: RXF 393 renal
SF-268 CNS = tested on: SF-268 CNS
SF-295 CNS = tested on: SF-295 CNS
SF-539 CNS = tested on: SF-539 CNS
SK-MEL-2 melanoma = tested on: SK-MEL-2 melanoma
SK-MEL-28 melanoma = tested on: SK-MEL-28 melanoma
SK-MEL-5 melanoma = tested on: SK-MEL-5 melanoma
SK-OV-3 ovarian = tested on: SK-OV-3 ovarian
SN12C renal = tested on: SN12C renal
SNB-19 CNS = tested on: SNB-19 CNS
SNB-75 CNS = tested on: SNB-75 CNS
SR leukemia = tested on: SR leukemia
SW-620 colon = tested on: SW-620 colon
T-47D breast = tested on: T-47D breast
TK-10 renal = tested on: TK-10 renal
U251 CNS = tested on: U251 CNS
UACC-257 melanoma = tested on: UACC-257 melanoma
UACC-62 melanoma = tested on: UACC-62 melanoma
UO-31 renal = tested on: UO-31 renal

CN1C[C@@H](c2ccc(Cl)cc2)[C@]2(NC(=S)N(c3ccc(F)c(Cl)c3)C2=O)[C@@]12C(=O)NC1C=CC(Cl)=C[C@H]12 (some centres not stated)
GI50 (786-0 renal): 2.08 µM | TGI (786-0 renal): 4.82 µM | GI50 (A498 renal): 2.74 µM | TGI (A498 renal): 10.1 µM | GI50 (A549 NSCLC): 3.34 µM | TGI (A549 NSCLC): 12.3 µM | GI50 (ACHN renal): 3.07 µM | TGI (ACHN renal): 10.6 µM | GI50 (BT-549 breast): 4.62 µM | TGI (BT-549 breast): 17.1 µM | GI50 (CCRF-CEM leukemia): 4.13 µM | TGI (CCRF-CEM leukemia): 18.6 µM | GI50 (COLO 205 colon): 1.75 µM | TGI (COLO 205 colon): 3.46 µM | GI50 (DU-145 prostate): 3.35 µM | TGI (DU-145 prostate): 12.6 µM | GI50 (EKVX NSCLC): 2.72 µM | TGI (EKVX NSCLC): 20.3 µM | GI50 (HCC-2998 colon): 3.85 µM | TGI (HCC-2998 colon): 13.8 µM | GI50 (HCT-116 colon): 3.12 µM | TGI (HCT-116 colon): 10.2 µM | GI50 (HCT-15 colon): 3 µM | TGI (HCT-15 colon): 10.3 µM | GI50 (HL-60(TB) leukemia): 2.48 µM | TGI (HL-60(TB) leukemia): 6.02 µM | GI50 (HOP-62 NSCLC): 3.14 µM | TGI (HOP-62 NSCLC): 12.7 µM | GI50 (HOP-92 NSCLC): 2.49 µM | TGI (HOP-92 NSCLC): 7.13 µM | GI50 (HS 578T breast): 2.96 µM | TGI (HS 578T breast): 16.7 µM | GI50 (HT29 colon): 2.1 µM | TGI (HT29 colon): 4.24 µM | GI50 (IGROV1 ovarian): 3.12 µM | TGI (IGROV1 ovarian): 14.6 µM | GI50 (KM12 colon): 2 µM | TGI (KM12 colon): 4.92 µM | GI50 (LOX IMVI melanoma): 1.7 µM | TGI (LOX IMVI melanoma): 3.33 µM | GI50 (M14 melanoma): 2.95 µM | TGI (M14 melanoma): 10.6 µM | GI50 (MALME-3M melanoma): 2.81 µM | TGI (MALME-3M melanoma): 9.09 µM | GI50 (MCF7 breast): 2.82 µM | TGI (MCF7 breast): 12 µM | GI50 (MDA-MB-231 breast): 1.88 µM | TGI (MDA-MB-231 breast): 4.27 µM | GI50 (MDA-MB-435): 3.02 µM | TGI (MDA-MB-435): 11.2 µM | GI50 (MOLT-4 leukemia): 2.87 µM | TGI (MOLT-4 leukemia): 14.6 µM | GI50 (NCI-H226 lung): 1.82 µM | TGI (NCI-H226 lung): 4.72 µM | GI50 (NCI-H23 lung): 2.66 µM | TGI (NCI-H23 lung): 10.1 µM | GI50 (NCI-H460 lung): 2.44 µM | TGI (NCI-H460 lung): 6.09 µM | GI50 (NCI-H522 lung): 2.84 µM | TGI (NCI-H522 lung): 10.9 µM | GI50 (NCI/ADR-RES ovarian): 2.54 µM | TGI (NCI/ADR-RES ovarian): 8.97 µM | GI50 (OVCAR-3 ovarian): 2.12 µM | TGI (OVCAR-3 ovarian): 4.75 µM | GI50 (OVCAR-4 ovarian): 3.75 µM | TGI (OVCAR-4 ovarian): 18.6 µM | GI50 (OVCAR-5 ovarian): 2.36 µM | TGI (OVCAR-5 ovarian): 6.14 µM | GI50 (OVCAR-8 ovarian): 2.78 µM | TGI (OVCAR-8 ovarian): 8.6 µM | GI50 (PC-3 prostate): 2.25 µM | TGI (PC-3 prostate): 6.42 µM | GI50 (RPMI-8226 leukemia): 2.72 µM | TGI (RPMI-8226 leukemia): 7.06 µM | GI50 (RXF 393 renal): 1.88 µM | TGI (RXF 393 renal): 3.73 µM | GI50 (SF-268 CNS): 2.89 µM | TGI (SF-268 CNS): 11.2 µM | GI50 (SF-295 CNS): 1.89 µM | TGI (SF-295 CNS): 4.46 µM | GI50 (SF-539 CNS): 3.29 µM | TGI (SF-539 CNS): 12.2 µM | GI50 (SK-MEL-2 melanoma): 3.08 µM | TGI (SK-MEL-2 melanoma): 10.3 µM | GI50 (SK-MEL-28 melanoma): 3.61 µM | TGI (SK-MEL-28 melanoma): 12.9 µM | GI50 (SK-MEL-5 melanoma): 1.97 µM | TGI (SK-MEL-5 melanoma): 4.21 µM | GI50 (SK-OV-3 ovarian): 3.09 µM | TGI (SK-OV-3 ovarian): 10.4 µM | GI50 (SN12C renal): 1.86 µM | TGI (SN12C renal): 3.74 µM | GI50 (SNB-19 CNS): 3.17 µM | TGI (SNB-19 CNS): 14.4 µM | GI50 (SNB-75 CNS): 1.87 µM | TGI (SNB-75 CNS): 9.92 µM | GI50 (SR leukemia): 2.79 µM | TGI (SR leukemia): 7.18 µM | GI50 (SW-620 colon): 3.19 µM | TGI (SW-620 colon): 13.1 µM | GI50 (T-47D breast): 2.85 µM | TGI (T-47D breast): 13.6 µM | GI50 (TK-10 renal): 3.48 µM | TGI (TK-10 renal): 8.06 µM | GI50 (U251 CNS): 2.01 µM | TGI (U251 CNS): 4.71 µM | GI50 (UACC-257 melanoma): 3.48 µM | TGI (UACC-257 melanoma): 14.1 µM | GI50 (UACC-62 melanoma): 3.11 µM | TGI (UACC-62 melanoma): 12.3 µM | GI50 (UO-31 renal): 1.6 µM | TGI (UO-31 renal): 3.86 µM
